# Values joined by “and” are separate entries in the source; they are usually repeats but may differ in a detail not shown here. Equal entries are not always repeated.
# What was measured:
# [1] = tested on: male C57BL/6 mice on high fat diet; assay: Fasting blood glucose levels after a single gavage in mice on a high fat diet; format: in vivo; conditions: 300 mg, Group 5, gavage
# Description: The Aframomum melegueta-derived hypoglycemic extract product of Example 1 was tested in vivo for hypoglycemic activity.
# (§1) Five week old male C57BL/6 mice (Jackson Laboratories, Bar Harbor, Me.) were placed on either low fat or high fat rodent diets (D12450B, 10% kcal, low fat or D12492, 60% kcal, high fat, Research Diets, New Brunswick, N.J.).
# The mice were housed four to a cage under controlled temperature ([…]) and 12 hr light-dark cycles. Food (standard mouse chow, Purina) and water were available on an ad libitum basis for 7 days. The mice were then randomly divided into six groups (n=6) for the study. Five groups of mice were fed the high fat diet for 12 weeks (Groups 1-5), and the sixth group (Group 6) was fed the low fat diet for 12 weeks. Weekly food intake per cage and individual body weights were determined throughout the study.
# After 12 weeks, all mice (Groups 1-6) were fasted for 4 hrs. After fasting, Group 1 mice provided a control and were gavaged with saline containing 5% DMSO; mice of Groups 2-4 were gavaged with different concentrations of the hypoglycemic extract product of Example 1 in 5% DMSO; and, Group 5 mice were gavaged with 300 mg/kg of Metformin in 5% DMSO as a positive control. Group 6 mice, which were fed a low fat diet, were gavaged with saline containing 5% DMSO and thus were also used as a control. Blood glucose levels were measured with a One Touch® Ultra® handheld glucometer (Lifescan, Milpitas, Calif.) using One Touch® Ultra® test strips. Mice were deprived of food during testing and the blood glucose levels of whole blood (obtained from a tail nick procedure) were determined at certain times (0, 3, and 5 hours after fasting commenced).
# […] with compositions comprising […]. The blood glucose levels were tested immediately after treatment (0 hours) and then 3 and 5 hours after treatment.
# [2] = tested on: high fat diet-induced diabetic model (male C57BL/6 mice); assay: Oral glucose tolerance test in high fat diet-induced diabetic model; format: in vivo; conditions: OGTT after 1 wk
# Description: The Aframomum melegueta-derived hypoglycemic extract product of Example 1 was tested in vivo for hypoglycemic activity using a high fat diet-induced diabetic model.
# as §1
# The mice were housed individually under controlled temperature (70° F.) and 12 hr light-dark cycles. Food (standard mouse chow, Purina) and water were available on an ad libitum basis for 7 days. The mice were then randomly divided into control Groups 1 and 6 (n=8-10), treatment Groups 2 and 3 (n=6), and two positive control Groups 4 and 5 (n=6) for the study. The control mice continued to receive either a high fat diet or a low fat diet, and the treatment groups were fed the high fat diet for a 14 week period. Two groups of mice were gavaged with PMI006 at a dose of 500 mg/kg daily. As a positive control, Metformin was administered at a dose of 300 mg/kg in two groups of positive control mice.
# An oral glucose tolerance test was performed after seven days of treatment. On the test day, animals were fasted for seven hours and glucose (2.0 g/kg) was then orally administered to them. […]
# Mice were deprived of food during testing and the blood glucose levels of whole blood (obtained from a tail nick procedure) were determined at certain times. The Aframomum melegueta-derived hypoglycemic extract product of Example 1 was orally administered at a dosage of 500 mg/kg to the two treatment Groups 2 and 3 either 1.5 or 3.0 hours before the glucose challenge. Metformin was orally administered at a dosage of 300 mg/kg to the animals in the positive control Groups 4 and 5 either 1.5 or 3.0 hours before the glucose challenge.
smiles,measurement,setting,value
CN(C)C(=N)N=C(N)N [Metformin],Avg. glucose,[1]; Time - 0 hours,218.5 mg/dL
same,"glucose (mg/dl), individual animals",[1]; Time - 0 hours,252 mg/dL and 188 mg/dL and 194 mg/dL and 184 mg/dL and 274 mg/dL and 219 mg/dL
same,Avg. glucose,[1]; Time - 3 hours,149.7 mg/dL
same,"glucose (mg/dl), individual animals",[1]; Time - 3 hours,66 mg/dL and 148 mg/dL and 161 mg/dL and 147 mg/dL and 157 mg/dL and 219 mg/dL
same,Average value,[1]; Time - 5 hours,128.2 mg/dL
same,"glucose (mg/dl), individual animals",[1]; Time - 5 hours,145 mg/dL and 96 mg/dL and 119 mg/dL and 124 mg/dL and 162 mg/dL and 123 mg/dL
same,Plasma glucose,"[2]; 300 mg/kg oral 1.5 hr before glucose challenge, Group 4, 0 min",160 ± 4.9 mg/dL
same,Plasma glucose,"[2]; 300 mg/kg oral 1.5 hr before glucose challenge, Group 4, 30 min",235 ± 12.2 mg/dL
same,Plasma glucose,"[2]; 300 mg/kg oral 1.5 hr before glucose challenge, Group 4, 60 min",190 ± 11.1 mg/dL
same,Plasma glucose,"[2]; 300 mg/kg oral 1.5 hr before glucose challenge, Group 4, 90 min",164 ± 6.0 mg/dL
same,Plasma glucose,"[2]; 300 mg/kg oral 3 hr before glucose challenge, Group 5, 0 min",173 ± 13.2 mg/dL
same,Plasma glucose,"[2]; 300 mg/kg oral 3 hr before glucose challenge, Group 5, 30 min",207 ± 26.7 mg/dL
same,Plasma glucose,"[2]; 300 mg/kg oral 3 hr before glucose challenge, Group 5, 60 min",171 ± 14.8 mg/dL
same,Plasma glucose,"[2]; 300 mg/kg oral 3 hr before glucose challenge, Group 5, 90 min",158 ± 6.7 mg/dL
